Structures are written as SMILES.

The target of experiment [1] is ZIPK/DAPK3 (Homo sapiens, UniProt O43293). Nature of the experiment: biochemical. Particulars: read-out: % enzyme activity, 1 μM; Run 1, Run 2.
Experiment [2] concerns the target CDK7/cyclin H (Homo sapiens, UniProt P50613). Nature of the experiment: biochemical. As to conditions: read-out: % enzyme activity, 1 μM; Run 1, Run 2.
In experiment [3] the target is MEK2 (Homo sapiens, UniProt P36507). As to conditions: 1 μM; Run 1, Run 2.
Experiment [4] deals with IR (Homo sapiens, UniProt P06213). Particulars: 1 μM; Run 1, Run 2.
Experiment [5] deals with T1, NEK2 (Homo sapiens, UniProt P51955).
T1 sequence (P51955 1-445): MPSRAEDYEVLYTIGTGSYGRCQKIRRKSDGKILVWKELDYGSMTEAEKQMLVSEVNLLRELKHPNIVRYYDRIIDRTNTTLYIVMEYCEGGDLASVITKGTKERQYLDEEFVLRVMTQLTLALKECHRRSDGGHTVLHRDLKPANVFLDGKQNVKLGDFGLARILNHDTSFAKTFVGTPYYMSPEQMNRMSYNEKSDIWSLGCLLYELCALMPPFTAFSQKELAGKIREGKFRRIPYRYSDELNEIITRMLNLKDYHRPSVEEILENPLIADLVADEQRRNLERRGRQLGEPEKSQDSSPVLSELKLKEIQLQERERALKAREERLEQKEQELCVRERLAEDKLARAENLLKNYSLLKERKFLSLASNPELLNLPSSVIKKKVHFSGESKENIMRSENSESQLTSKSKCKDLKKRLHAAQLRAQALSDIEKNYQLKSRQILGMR
As to conditions: 1 μM; Run 1, Run 2.

In experiment [6] the target is PKCb1 (Homo sapiens, UniProt P05771). The experiment can be described thus: biochemical. Particulars: read-out: % enzyme activity, 1 μM; Run 1, Run 2.
Experiment [7] addresses T2, GCK/MAP4K2 (Homo sapiens, UniProt Q12851).
T2 sequence (Q12851 1-820): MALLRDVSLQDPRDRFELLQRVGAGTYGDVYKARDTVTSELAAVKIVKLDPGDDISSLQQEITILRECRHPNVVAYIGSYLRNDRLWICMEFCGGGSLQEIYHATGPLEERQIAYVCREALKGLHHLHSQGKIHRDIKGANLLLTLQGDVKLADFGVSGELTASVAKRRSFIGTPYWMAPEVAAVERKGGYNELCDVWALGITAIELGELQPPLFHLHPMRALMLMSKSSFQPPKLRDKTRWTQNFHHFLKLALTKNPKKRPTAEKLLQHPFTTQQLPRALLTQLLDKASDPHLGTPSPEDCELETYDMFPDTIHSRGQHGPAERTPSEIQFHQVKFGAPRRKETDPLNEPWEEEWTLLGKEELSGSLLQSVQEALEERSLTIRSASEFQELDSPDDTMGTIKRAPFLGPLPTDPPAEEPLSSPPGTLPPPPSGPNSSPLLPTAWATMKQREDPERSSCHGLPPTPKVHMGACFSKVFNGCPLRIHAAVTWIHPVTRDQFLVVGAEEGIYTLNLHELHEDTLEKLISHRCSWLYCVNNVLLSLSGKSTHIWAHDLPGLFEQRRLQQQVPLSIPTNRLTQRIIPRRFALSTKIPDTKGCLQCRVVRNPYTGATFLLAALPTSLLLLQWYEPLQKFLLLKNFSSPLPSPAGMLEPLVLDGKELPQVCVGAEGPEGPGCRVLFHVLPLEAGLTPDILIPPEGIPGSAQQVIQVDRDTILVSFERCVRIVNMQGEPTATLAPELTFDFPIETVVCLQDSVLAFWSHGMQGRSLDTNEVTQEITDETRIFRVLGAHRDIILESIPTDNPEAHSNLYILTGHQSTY
As to conditions: 1 μM; Run 1, Run 2.

The target of experiment [8] is T3, EPHA1 (Homo sapiens, UniProt P21709).
T3 sequence (P21709 26-976): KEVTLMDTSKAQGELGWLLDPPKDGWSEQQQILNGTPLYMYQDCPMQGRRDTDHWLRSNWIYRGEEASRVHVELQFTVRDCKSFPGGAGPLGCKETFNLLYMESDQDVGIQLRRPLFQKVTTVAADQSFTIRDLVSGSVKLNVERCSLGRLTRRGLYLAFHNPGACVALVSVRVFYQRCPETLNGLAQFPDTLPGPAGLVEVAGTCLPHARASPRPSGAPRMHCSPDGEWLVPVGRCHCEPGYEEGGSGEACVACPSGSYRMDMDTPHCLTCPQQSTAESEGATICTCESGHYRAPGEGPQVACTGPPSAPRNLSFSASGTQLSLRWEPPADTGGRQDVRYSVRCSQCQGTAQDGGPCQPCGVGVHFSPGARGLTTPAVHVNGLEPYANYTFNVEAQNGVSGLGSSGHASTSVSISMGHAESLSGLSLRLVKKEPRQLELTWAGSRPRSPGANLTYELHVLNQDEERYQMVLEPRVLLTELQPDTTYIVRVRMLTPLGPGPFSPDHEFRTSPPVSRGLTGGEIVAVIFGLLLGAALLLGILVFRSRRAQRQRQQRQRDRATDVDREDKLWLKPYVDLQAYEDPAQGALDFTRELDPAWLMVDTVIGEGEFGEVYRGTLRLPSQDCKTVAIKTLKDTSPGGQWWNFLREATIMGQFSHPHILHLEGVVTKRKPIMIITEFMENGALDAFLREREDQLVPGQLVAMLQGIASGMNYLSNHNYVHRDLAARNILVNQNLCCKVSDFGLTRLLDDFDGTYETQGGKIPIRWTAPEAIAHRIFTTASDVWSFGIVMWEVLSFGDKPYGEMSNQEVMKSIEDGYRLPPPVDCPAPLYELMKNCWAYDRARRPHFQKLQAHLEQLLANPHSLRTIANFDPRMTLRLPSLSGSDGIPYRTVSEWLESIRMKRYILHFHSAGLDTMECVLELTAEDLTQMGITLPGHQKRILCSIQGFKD
Nature of the experiment: biochemical. Particulars: read-out: % enzyme activity, 1 μM; Run 1, Run 2.

Experiment [9] has as its target ACK1 (Homo sapiens, UniProt Q07912). The experiment can be described thus: biochemical. As to conditions: read-out: % enzyme activity, 1 μM; Run 1, Run 2.
The target of experiment [10] is PKN1/PRK1 (Homo sapiens, UniProt Q16512). The experiment can be described thus: biochemical. As to conditions: read-out: % enzyme activity, 1 μM; Run 1, Run 2.

IR, sequence (P06213 28-1382): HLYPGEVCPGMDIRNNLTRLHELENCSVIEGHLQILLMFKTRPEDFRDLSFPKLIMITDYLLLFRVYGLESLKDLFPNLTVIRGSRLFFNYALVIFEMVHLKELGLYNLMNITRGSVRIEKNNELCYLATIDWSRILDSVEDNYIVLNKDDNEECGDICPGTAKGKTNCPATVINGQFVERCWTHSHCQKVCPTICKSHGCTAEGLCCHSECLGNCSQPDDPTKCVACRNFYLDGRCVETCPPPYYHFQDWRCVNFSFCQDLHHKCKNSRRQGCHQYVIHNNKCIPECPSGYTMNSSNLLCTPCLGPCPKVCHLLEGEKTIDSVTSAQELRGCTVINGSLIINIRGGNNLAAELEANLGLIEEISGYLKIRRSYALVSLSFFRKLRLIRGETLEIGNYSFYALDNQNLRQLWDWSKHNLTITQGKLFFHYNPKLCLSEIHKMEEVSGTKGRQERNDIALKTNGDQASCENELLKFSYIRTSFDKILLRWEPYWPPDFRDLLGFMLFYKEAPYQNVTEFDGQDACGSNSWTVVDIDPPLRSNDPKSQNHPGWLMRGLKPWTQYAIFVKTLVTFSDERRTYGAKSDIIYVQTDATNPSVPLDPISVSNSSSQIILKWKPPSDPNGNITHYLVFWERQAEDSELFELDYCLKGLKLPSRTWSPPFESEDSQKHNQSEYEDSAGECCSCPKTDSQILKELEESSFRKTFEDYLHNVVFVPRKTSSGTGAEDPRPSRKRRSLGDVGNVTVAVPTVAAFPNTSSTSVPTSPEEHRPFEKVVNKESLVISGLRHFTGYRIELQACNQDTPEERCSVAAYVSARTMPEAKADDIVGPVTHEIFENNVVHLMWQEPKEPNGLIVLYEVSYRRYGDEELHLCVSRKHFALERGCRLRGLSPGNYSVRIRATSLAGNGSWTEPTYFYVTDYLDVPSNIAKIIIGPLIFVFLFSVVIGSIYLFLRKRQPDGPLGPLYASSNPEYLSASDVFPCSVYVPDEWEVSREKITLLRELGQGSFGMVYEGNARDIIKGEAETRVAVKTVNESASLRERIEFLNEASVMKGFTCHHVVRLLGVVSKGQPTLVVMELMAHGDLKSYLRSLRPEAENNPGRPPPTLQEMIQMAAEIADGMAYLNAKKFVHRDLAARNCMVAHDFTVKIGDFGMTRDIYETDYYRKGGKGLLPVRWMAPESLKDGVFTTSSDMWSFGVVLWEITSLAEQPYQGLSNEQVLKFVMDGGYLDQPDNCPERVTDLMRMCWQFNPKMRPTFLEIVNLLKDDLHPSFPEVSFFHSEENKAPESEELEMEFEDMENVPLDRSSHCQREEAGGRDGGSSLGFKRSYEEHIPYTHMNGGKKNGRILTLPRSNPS
MEK2, sequence (P36507 whole entry): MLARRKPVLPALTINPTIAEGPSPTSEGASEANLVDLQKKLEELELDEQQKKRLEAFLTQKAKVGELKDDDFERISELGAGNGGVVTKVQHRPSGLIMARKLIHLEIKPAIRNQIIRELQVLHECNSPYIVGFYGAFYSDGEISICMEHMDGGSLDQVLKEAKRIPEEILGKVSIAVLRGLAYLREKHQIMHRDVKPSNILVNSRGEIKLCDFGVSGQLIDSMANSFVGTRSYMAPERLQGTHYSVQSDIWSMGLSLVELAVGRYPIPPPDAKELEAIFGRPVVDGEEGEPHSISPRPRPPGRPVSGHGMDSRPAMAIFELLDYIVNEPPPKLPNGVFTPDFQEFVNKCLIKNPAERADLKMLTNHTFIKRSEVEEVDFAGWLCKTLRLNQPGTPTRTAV
ZIPK/DAPK3, sequence (O43293 whole entry): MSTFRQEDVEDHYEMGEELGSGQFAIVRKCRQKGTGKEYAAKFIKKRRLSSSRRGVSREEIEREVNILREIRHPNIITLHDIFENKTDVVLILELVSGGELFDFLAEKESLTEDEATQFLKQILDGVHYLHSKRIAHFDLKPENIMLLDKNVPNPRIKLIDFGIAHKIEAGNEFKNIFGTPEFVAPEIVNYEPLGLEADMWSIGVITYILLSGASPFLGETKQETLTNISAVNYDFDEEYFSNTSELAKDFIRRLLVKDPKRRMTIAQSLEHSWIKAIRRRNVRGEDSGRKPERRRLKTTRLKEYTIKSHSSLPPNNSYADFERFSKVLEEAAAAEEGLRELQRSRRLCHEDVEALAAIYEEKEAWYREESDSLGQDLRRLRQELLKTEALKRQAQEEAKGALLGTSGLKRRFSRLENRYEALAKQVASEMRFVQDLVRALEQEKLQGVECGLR
CDK7/cyclin H, sequence (P50613 whole entry): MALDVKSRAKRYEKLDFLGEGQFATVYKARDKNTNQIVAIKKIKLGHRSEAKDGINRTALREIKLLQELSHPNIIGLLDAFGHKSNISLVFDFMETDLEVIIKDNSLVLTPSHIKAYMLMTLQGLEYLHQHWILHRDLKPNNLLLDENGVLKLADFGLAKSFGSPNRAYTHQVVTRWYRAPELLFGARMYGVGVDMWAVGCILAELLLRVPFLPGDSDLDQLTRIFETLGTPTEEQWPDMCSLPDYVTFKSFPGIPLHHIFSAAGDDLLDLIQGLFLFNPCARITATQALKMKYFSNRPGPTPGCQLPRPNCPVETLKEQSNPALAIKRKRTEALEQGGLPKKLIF
CDK7/cyclin H, sequence (P51946 whole entry partner): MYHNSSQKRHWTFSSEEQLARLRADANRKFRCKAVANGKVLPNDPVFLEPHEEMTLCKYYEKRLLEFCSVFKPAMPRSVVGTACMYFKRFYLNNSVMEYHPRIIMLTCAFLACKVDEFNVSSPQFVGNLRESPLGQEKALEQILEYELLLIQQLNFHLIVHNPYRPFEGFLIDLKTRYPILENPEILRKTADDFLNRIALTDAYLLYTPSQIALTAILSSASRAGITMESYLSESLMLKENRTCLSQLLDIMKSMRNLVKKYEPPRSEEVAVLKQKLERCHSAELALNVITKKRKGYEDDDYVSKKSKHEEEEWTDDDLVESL
CDK7/cyclin H, sequence (P51948 whole entry partner): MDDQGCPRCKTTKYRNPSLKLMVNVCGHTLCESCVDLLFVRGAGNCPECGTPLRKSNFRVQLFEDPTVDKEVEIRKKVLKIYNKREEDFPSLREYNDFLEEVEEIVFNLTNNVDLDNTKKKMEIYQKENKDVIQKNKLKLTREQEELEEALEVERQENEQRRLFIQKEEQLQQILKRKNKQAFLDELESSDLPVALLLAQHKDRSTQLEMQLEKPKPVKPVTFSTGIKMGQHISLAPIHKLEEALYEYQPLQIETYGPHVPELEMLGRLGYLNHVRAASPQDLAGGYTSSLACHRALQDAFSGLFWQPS
ACK1, sequence (Q07912 whole entry): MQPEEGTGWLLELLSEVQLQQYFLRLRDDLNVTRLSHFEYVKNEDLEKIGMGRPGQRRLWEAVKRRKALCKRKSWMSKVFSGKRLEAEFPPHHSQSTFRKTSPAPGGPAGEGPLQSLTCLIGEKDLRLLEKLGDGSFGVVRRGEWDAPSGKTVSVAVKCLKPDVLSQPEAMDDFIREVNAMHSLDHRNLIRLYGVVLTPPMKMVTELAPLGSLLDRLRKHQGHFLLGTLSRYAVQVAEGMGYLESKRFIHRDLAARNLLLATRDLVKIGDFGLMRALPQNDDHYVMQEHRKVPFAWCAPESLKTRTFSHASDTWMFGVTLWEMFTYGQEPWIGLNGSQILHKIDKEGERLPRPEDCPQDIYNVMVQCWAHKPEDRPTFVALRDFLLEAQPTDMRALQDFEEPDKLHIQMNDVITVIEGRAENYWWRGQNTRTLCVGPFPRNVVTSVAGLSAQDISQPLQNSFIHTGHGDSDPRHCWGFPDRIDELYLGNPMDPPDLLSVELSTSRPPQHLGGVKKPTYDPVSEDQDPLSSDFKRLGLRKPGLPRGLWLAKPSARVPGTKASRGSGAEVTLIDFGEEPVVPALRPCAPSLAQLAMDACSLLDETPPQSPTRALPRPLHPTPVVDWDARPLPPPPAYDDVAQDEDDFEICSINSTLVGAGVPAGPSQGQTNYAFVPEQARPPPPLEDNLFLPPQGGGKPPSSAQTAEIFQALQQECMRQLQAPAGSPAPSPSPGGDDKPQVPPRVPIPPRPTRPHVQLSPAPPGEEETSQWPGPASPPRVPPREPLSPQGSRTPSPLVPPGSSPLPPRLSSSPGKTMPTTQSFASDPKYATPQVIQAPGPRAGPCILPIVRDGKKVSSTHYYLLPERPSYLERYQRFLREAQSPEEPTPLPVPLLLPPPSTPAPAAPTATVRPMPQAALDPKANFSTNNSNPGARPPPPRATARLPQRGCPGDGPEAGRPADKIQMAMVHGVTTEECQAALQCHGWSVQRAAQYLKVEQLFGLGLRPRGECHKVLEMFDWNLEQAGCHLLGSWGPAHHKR
PKCb1, sequence (P05771 whole entry): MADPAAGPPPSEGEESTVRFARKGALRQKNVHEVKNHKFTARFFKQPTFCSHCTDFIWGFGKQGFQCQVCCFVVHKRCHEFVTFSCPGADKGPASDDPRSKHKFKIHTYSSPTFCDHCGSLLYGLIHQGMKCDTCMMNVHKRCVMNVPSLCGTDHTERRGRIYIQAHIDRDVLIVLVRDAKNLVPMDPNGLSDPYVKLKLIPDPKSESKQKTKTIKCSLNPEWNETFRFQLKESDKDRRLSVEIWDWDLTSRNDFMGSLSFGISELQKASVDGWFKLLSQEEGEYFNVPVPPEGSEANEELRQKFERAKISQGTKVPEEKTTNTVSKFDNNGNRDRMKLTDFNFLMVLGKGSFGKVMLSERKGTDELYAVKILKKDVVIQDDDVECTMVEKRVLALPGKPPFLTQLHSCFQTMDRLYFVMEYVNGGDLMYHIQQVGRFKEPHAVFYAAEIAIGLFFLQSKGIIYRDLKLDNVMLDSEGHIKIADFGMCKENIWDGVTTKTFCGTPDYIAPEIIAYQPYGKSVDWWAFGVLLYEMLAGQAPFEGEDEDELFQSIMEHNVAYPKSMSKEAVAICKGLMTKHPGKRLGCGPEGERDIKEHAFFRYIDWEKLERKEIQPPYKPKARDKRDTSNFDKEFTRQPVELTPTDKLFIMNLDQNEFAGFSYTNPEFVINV

As for `COc1cc(-c2cncc(-c3ccc(N4CCN(C)CC4)cc3)c2C)cc(F)c1C(N)=O` [Compound 26a, 2-Fluoro-6-methoxy-4-(4-methyl-5-(4-(4-methylpiperazin-1-yl)phenyl)pyridin-3-yl)benzamide], the remaining activity at 1 µM in experiment [1] came to 104%; in experiment [2], 97%; in [6], 85.5%; in experiment [8], 97.5%; in experiment [9], 65.5%; in [10], 98.5%. The “% enzyme activity” value in [3] worked out at 85.87%; in experiment [4], 100.44%; in [5], 90.39%; in experiment [7], 59.95%.
`COc1cc(-c2cncc(-c3ccc(N4C[C@@H](C)N(C)[C@@H](C)C4)cc3)c2C)cc(F)c1C(N)=O` [Compound 26c, 2-Fluoro-6-methoxy-4-(4-methyl-5-(4-((3R,5S)-3,4,5-trimethylpiperazin-1-yl)phenyl)pyridin-3-yl)benzamide]: the remaining activity at 1 µM in experiment [1] worked out at 104%; in [2], 96.1%; in experiment [6], 85.3%; in [8], 93.3%; in experiment [9], 79.5%; in experiment [10], 98.7%. In addition, the “% enzyme activity” value in [3] is reported as 91.58%; in experiment [4] it was 97.15%; in [5] it was 96.23%; in experiment [7], 74.91%.

The values are drawn from paper PMC8213057, “Targeting ALK2: An Open Science Approach to Developing Therapeutics for the Treatment of Diffuse Intrinsic Pontine Glioma” (Journal of Medicinal Chemistry, 2020).
